Assay results taken from US6784175B2, “Use of substituted 1-amino-5-phenylpentane-3-ol and/or 1-amino-6-phenylhexane-3-ol compounds as medicaments” (Gruenenthal GmbH, priority 2000, dated 2004).

Assays:
[1] = tested on: (+)-MK801 binding site of the ionotropic NMDA receptor; experiment: (3H)-(+)-MK801 receptor bonding test on rat cerebral membrane homogenates; details: 1 nmol/l (3H)-(+)-MK801, rat brain membrane homogenate; for Percentage inhibition of (3H)-(+)-MK801 binding at 10 μM: 10 μmol/l compound, triple determinations; for Ki: calculated from IC50 by Cheng-Prusoff equation
Experimental: Research to determine the NMDA antagonistic effect of each compound in general formula I was carried out on cerebral membrane homogenates (homogenate of rat brain without cerebellum, pons and medulla oblongata taken from male Wistar rats (Charles River, Sulzfeld, Germany)).
For this purpose, after separating the cerebellum, pons and medulla oblongata, freshly prepared rat brains were macerated in 50 mmol/l of tris/HCl (pH 7.7) with a Polytron homogeniser (model PT3000, Kinematika AG, Littau, Switzerland) at 6000 revolutions per minute (rpm) for 1 minute with ice cooling and centrifuged for 15 minutes at 4° C. and 60,000 g. After decanting and discarding the supernatant, again placing in 50 mmol/l of tris/HCl (pH 7.7) and macerating the membrane pellet with a homogeniser at 2000 rpm for 1 minute, it was centrifuged again for 15 minutes at 4° C. and 60,000 g. The supernatant was again discarding and the membrane pellet homogenised (2000 rpm for 1 minute) in 50 mmol/l of tris/HCl (pH 7.7) and frozen in aliquots at −70° C.
For the receptor bonding test, each aliquot was defrosted and then centrifuged for 15 minutes at 4° C. and 60,000 g. After decanting and discarding the supernatant, the membrane pellet was taken up with bonding test buffer and homogenised (2000 rpm for 1 minute). The bonding test buffer was 5 mmol/l tris/HCl (pH 7.7) supplemented with 30 μmol/l of glycine and 100 μmol/l of glutamic acid.
1 nmol/l of (^3H)-(+)-MK801 ((5R, 10S)-(+)-5-methyl-10,11-dihydro-5H-dibenzo(a,d)cycloheptane-5,10-imine was used as a radioactively marked ligand (NET-972, NEN, Cologne Germany). The proportion of unspecific bonding was determined in the presence of 10 μmol/l of non-radioactively marked (+)-MK801 (RBI/Sigma, Deisenhofen, Germany). In further batches, each of the compounds of general formula I were added in series of concentrations and the displacement of the radioactive ligand out of its specific bond to the NMDA receptor determined. All the batches were subjected to triple determinations. The batches were each incubated for 40 minutes at 25° C. in a water bath and then harvested for determination of the radioactive ligand bound to the cerebral membrane homogenate by means of filtration through glass-fibre filters (GF/B) (Whatman GF/B, Hassel, Munich, Germany). The radioactivity retained by the glass-fibre filter discs was measured in a β counter (Packard TRI-CARB Liquid Scintillation Analyser 2000CA, Packard Instrument, Meriden, Conn. 06450, USA) after adding a scintillator (“Ready Protein” scintillator, Beckmann Coulter GmhH, Krefeld, Germany).
The percentage inhibition of the specific bonding of the ligand (^3H)-(+)-MK801 in the presence of 10 μmol/l of each compound of general formula I resulting from the triple batches is used as a measure of the affinity of the compound for the (+)-MK801 binding site of the ionotropic NMDA receptor. From batches with concentration series of these compounds of general formula I, the IC50 values (concentration of substituted compounds with 50% displacement of radioactive ligand out of its specific bond) were calculated in accordance with the law of mass action using non-linear regression. From these IC50 values, the Kj values were calculated in accordance with the Cheng-Prusoff equation (Y. Cheng, W. H. Prusoff, 1973, Biochem. Pharmacol., 22, pp 3099-3108).

SMILES | melting point | Percentage inhibition of (3H)-(+)-MK801 binding at 10 μM [1] | Ki ([1]; hydrochloride) | Ki [1]
Cc1ccccc1C(C1CCCCC1(O)CCc1ccccc1Cl)N(C)C.Cl (stereo not drawn) [Example 15, 1-[2-(2-chlorophenyl)ethyl]-2-(dimethylamino-o-tolylmethyl)cyclohexanol, hydrochloride] | 190 to 194 °C | 100% | 700 nM | 
CN(C)C(c1ccccc1F)C1CCCCC1(O)CCc1ccccc1Cl.Cl (stereo not drawn) [Example 19, 1-[2-(2-chlorophenyl)ethyl]-2-(dimethylamino-(2-fluorophenyl)methyl]cyclohexanol, hydrochloride] | 213 °C | 102% |  | 800 nM
Cc1ccccc1C(C1CCCCC1(O)CCc1ccccc1Cl)N1CCCC1.Cl (stereo not drawn) [Example 23, 1-[2-(2-chlorophenyl)ethyl]-2-(pyrrolidine-1-yl-o-tolylmethyl)cyclohexanol, hydrochloride] | 155 °C | 101% |  | 400 nM
